Key:
MIAC51 = assay: Cure / survival rate of chloroleukemic rats after chemotherapy; format: in vivo, rat; conditions: CTX, after two rounds of chemotherapy
Protocol: On day 5 after birth all rats received 1×105 MIAC51 intraperitoneally in 0.1 mL of serum free (SF) RPMI. MIAC51 were cultured in RPMI 1640 supplemented with L-glutamine and 10% fetal bovine serum at […] in a 5% CO2, 100% humidity incubator. Cells were grown to 50% confluency (1.5×106 mL) collected in 50 mL conical tubes, centrifuged at 600 g for 10 minutes at room temperature and resuspended in SF-RPMI at a concentration of 1×10^6/mL prior to injection.

Long Evans Rats = assay: Alopecia in chloroleukemic Long Evans rats receiving multi-course chemotherapy; format: in vivo, rat; conditions: CTX
From the text: Animals were then randomized in four groups.
Treatments were started on day 6 after birth.
Unused preparations were disposed of.

[1] = test system: Long Evans and Sprague Dawley rats; conditions: CTX 37.5 mg/kg once i.p.
Protocol: Specifically, Long Evans and Sprague Dawley rats with pups were purchased from Harlan Laboratories, Inc. They were housed and fed according to applicable animal handling rules and regulations. Pups were allowed to acclimate for 48 hours prior to the start of experiments. […] Rats were isolated from their littermates and mother for 6-hour periods of time. Subsequently, the treated area was cleaned with soap and water and pups were returned to their litters. On day 13, rats either received etoposide (1.5 mg/kg daily for 3 days) or cyclophosphamide (CTX) (37.5 mg/kg once) or combination cyclophosphamide (35 mg/kg once) and doxorubicin (2.5 mg/kg daily for 3 days). All chemotherapies were purchased from Sigma and were given intraperitoneally (i.p.) in a total volume of 0.1 mL. Alopecia was recorded 10 days after the last dose of chemotherapy.

O=P1(N(CCCl)CCCl)NCCCO1 (stereo not drawn) [CTX]
% cured / survival rate (MIAC51): 20%
Cured (number of rats) (MIAC51; of 40): 8
extent of alopecia (grade) (Long Evans Rats; first round of chemotherapy, all rats): +4
rats with alopecia grade 4+ (number) (Long Evans Rats; first round, 4+ = 75-100% alopecia, of 40): 40
rats with alopecia grade 4+ (number) (Long Evans Rats; second round, of 8): 8
alopecia in control rats that received cyclophosphamide [1]: totally alopecic

— patent publication US20220023317A1, “PREVENTING OR MITIGATING CHEMOTHERAPY INDUCED ALOPECIA USING VITAMIN D” (Berg LLC, priority 2013, published 2022)
